Reference: article PMC8708875 (Pharmaceutics, 2021)

Assays:
Assay type in all cases: cell-based, mouse
[1] = test system: epididymal adipose tissue explants; test: Glucose uptake in epididymal adipose tissue explants; conditions: Ric4 100 µM, insulin 100 nM; 3H-deoxyglucose 1 µCi/mL, Krebs-Ringer bicarbonate buffer, 37 °C
Protocol: Glucose uptake was evaluated in adipose tissue explants from mice bearing or not deletion of insulin receptor in adipocytes essentially as previously described. Briefly, explants of epididymal adipose tissue (20–25 mg) were incubated in 1 mL of Krebs–Ringer bicarbonate buffer (in mmol/L): 118 NaCl, 4.8 KCl, 1.25 CaCl2, 1.2 KH2PO4, 1.2 MgSO4, 25 NaHCO3, and 5.5 glucose and 1 μCi/mL of ^3H-deoxyglucose (New England Radiochemicals, Boston, MA, USA) supplemented with 2% fatty acid-free BSA (Sigma, Oakville, ON, Canada), 7.4. Vials were incubated at 37 °C for […] in the presence or absence of insulin (100 nM) or Ric4 peptide (100 µM). After 30 min, explants were extensively washed and processed to evaluate the uptake of ^3H deoxyglucose as previously described.
Figure 4 Glucose uptake and GLUT4 translocation induced by Ric4 in C2C12 cells. C2C12 cells were previously incubated in serum-free and glucose-free DMEM medium, then incubated with HEPES buffer for 30 min and then incubated for a further 30 min in glucose-uptake buffer containing vehicle, Ric4 (100 µM), or insulin (100 nM) in the presence of ^3H-glucose (1 µCi/mL) or 2-NBDG (80 µM). After incubations cells were lysed with 50 μL of 0.1 N NaOH and fluorescence or radiation of aliquots from the lysate were measured (A). Epididymal adipose tissue explants (20–25 mg) were incubated in Krebs–Ringer bicarbonate buffer containing glucose 5.5 mM and 1 μCi/mL of ^3H-deoxyglucose supplemented with 2% fatty acid-free for 30 min at 37 °C in the presence or absence of insulin (100 nM) or Ric4 (100 µM). The explants were processed to evaluate the uptake of ^3H-deoxyglucose (B). Myotubes were previously incubated in serum-free and glucose-free DMEM medium and then treated with control vehicle PBS or Ric4 (100 µM) for 30 min. Proteins from subcellular fractions: N/ER (C), microsomal (D), plasma membrane (E), were isolated and the expression Glut4 was analyzed by Western blot. Images were quantified using ImageJ 1.49 software. The statistical comparisons were performed using analysis of variance (ANOVA), followed by ad-hoc Tukey’s test using GraphPad Prism software * p < 0.05; # p < 0.05; **** p < 0.0001.

[2] = test system: Akt phosphorylation (pAkt, S473); test: Akt phosphorylation by Western blotting in differentiated C2C12 cells; conditions: peptides 100 µM, insulin 100 nM, Western blot, three independent experiments
Protocol: (§1) C2C12 cells were used as a well-described model of skeletal muscle to evaluate the effect of peptides in gene expression, cell signaling, and glucose uptake. These cells were kindly provided by Prof. Patricia Brum, School of Physical Education and Prof. Anselmo Moriscot, Biomedical Science Institute, University of São Paulo, São Paulo, Brazil. C2C12 cells were cultured and maintained in high glucose Dulbecco’s modified Eagle’s medium (DMEM; Thermo Fisher Scientific, São Paulo, SP, Brazil) supplemented with 10% fetal bovine serum (FBS), 100 U/mL penicillin, and […] streptomycin in a humidified atmosphere of 5% CO2 at 37 °C. The cells were used in low pass (between passages 2 and 4) for all experiments to maintain the potential for differentiation of cultures. […]
(§2) Western blotting experiments were performed to evaluate the expression levels of specific proteins. […] Western blot bands were visualized with Super-Signal West Pico Chemiluminescent substrate (Thermo Scientific) using the ChemiDoc™ MP Imaging System (BioRad, Hercules, CA, USA), and quantified using ImageJ 1.49 software. All results are expressed as the means ± standard error of the mean (SEM). […] Data were statistically analyzed with GraphPad Prism software (GraphPad Software Inc, San Diego, CA, USA). […]

[3] = test system: differentiated C2C12 cells; test: Glucose uptake in C2C12 myotubes; conditions: peptides 100 µM, insulin 100 nM; 30 min, 37 °C; 3H-glucose (1 µCi/mL) or 2-NBDG (80 µM)
[4] = test system: Erk 1/2 phosphorylation (pErk); test: Erk phosphorylation by Western blotting in differentiated C2C12 cells; conditions: peptides 100 µM, insulin 100 nM, Western blot, three independent experiments
Protocol: as §1, §2

## LASVSTVLTSKYR [Ric4, intracellular peptide derived from hemoglobin alpha subunit, last 13 C-terminal amino acids]
[1]
  glucose uptake in adipose tissue explants from C57BL6N WT mice: stimulate glucose uptake
  glucose uptake in adipose tissue explants from conditional knockout mice depleted from insulin receptor: neither insulin nor Ric4 were capable of inducing glucose uptake
[2]
  phosphorylation of Akt (pAkt over total Akt): activated
[3]
  glucose uptake in differentiated C2C12 cells: stimulate glucose uptake
[4]
  phosphorylation of Erk (pErk over total Erk): activated

## Insulin
[1]
  glucose uptake in adipose tissue explants from C57BL6N WT mice: stimulate glucose uptake
  glucose uptake in adipose tissue explants from conditional knockout mice depleted from insulin receptor: neither insulin nor Ric4 were capable of inducing glucose uptake
[2]
  phosphorylation of Akt (pAkt over total Akt): increased
[3]
  glucose uptake in differentiated C2C12 cells: stimulate glucose uptake
[4]
  phosphorylation of Erk (pErk over total Erk): increased
